Test results published in US8426447B2, “Spiro-tricyclic ring compounds as beta-secretase modulators and methods of use” (Amgen Inc., priority 2008, dated 2013).
Values belong to the compound of their own block, whether it stands above or below them.

How the values were obtained:
[1] = target: T1, BACE1 (Homo sapiens, UniProt P56817); test: In Vitro Enzymatic BACE FRET (Fluorescence Resonance Energy Transfer) Assay; assay type: biochemical; conditions: read-out: BACE1 FRET assay
In short: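 Fluorescence read-out after Tris addition raises pH to neutrality and ends the reaction. Before that, a peptide substrate carrying fluorophore and quencher across the BACE cleavage site (50 nM) is incubated with enzyme for one hour at pH 4.2 in acetate containing 10% DMSO and sub-micellar genapol.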

[2] = target: T1, BACE1; test: In Vitro BACE Cell-based Assay (HEK cell assay): Aβ40 in conditioned medium of cells stably expressing Amyloid Precursor Protein, sandwich ELISA; conditions: read-out: HEK cell assay
In short: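 Read-out is time-resolved fluorescence of Aβ40 in supernatant, captured by pAb40 and detected with biotinylated 6E10 plus Streptavidin-Europium. Cells stably expressing APP received compounds for 24 h over 10 concentrations starting at 100 μM or 10 μM, final DMSO 0.1%.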

[3] = in vitro BACE FRET enzyme assay, IC50 class symbols
[4] = HEK cell-based assay, Aβ40 in conditioned medium, IC50 class symbols

T1 sequence (P56817 46-501, species assumed): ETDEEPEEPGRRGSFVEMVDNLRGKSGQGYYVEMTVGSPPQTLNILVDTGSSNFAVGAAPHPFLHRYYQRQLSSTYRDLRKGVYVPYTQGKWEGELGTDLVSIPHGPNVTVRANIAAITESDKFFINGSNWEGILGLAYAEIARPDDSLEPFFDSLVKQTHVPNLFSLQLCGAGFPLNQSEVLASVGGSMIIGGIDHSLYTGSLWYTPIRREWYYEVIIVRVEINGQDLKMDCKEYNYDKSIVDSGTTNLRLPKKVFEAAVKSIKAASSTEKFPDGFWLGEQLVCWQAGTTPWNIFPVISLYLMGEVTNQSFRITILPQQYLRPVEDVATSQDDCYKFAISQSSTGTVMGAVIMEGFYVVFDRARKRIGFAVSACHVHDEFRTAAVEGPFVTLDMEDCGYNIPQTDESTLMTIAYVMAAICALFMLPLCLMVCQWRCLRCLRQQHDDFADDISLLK

Structure (SMILES): CC(C)(F)COc1ccc2c(c1)[C@]1(COC(N)=N1)c1cc(-c3cccnc3)ccc1O2 [compound 148]
IC50 ([1]; Table III, IC50's in uM ranges): < 0.1 µM
IC50 ([2]; Table III, IC50's in uM ranges): < 0.1 µM

Structure (SMILES): COc1ccc2c(c1)[C@@]1(N=C(N)O[C@@H]1C)c1cc(-c3cncnc3)ccc1O2 (single isomer, unassigned) [Example 125d]
IC50 ([1]; Table III, IC50's in uM ranges): 0.1 to 1 µM
IC50 ([2]; Table III, IC50's in uM ranges): 0.1 to 1 µM

Structure (SMILES): CC(C)(F)COc1cnc2c(c1)[C@]1(COC(N)=N1)c1cc(-c3cccc(C#N)c3)ccc1O2 [compound 357]
IC50 [1, 3]: < 0.1 µM
IC50 [2, 4]: < 0.1 µM

Structure (SMILES): COc1ccc2c(c1)[C@]1(COC(N)=N1)c1cc(-c3cncnc3)ccc1O2 [Example 10, (4S)-2′-methoxy-7′-(5-pyrimidinyl)spiro[1,3-oxazole-4,9′-xanthen]-2-amine]
IC50 ([1]; Table 1): 0.1 to 1 µM
IC50 ([2]; Table 1, Aβ40, 24 h incubation): 1 to 5 µM

Structure (SMILES): NC1=N[C@]2(CO1)c1cc(Br)ccc1Oc1ncccc12 [compound 600]
IC50 ([1]; Table IV, class symbols): > 5 µM
IC50 ([2]; Table IV, class symbols): > 5 µM

Structure (SMILES): CCOC1CN(c2ccc3c(c2)[C@]2(COC(N)=N2)c2cc(-c4cccnc4)ccc2O3)C1 [compound 415]
IC50 [1, 3]: < 0.1 µM
IC50 [2, 4]: < 0.1 µM

Structure (SMILES): CC(C)(C)CCOc1nccc2c1C1(COC(N)=N1)c1cc(-c3cncnc3)ccc1O2 (centres unmarked) [Example 109, 1-(3,3-Dimethylbutoxy)-8-(pyrimidin-5-yl)-5′H-spiro[chromeno[3,2-c]pyridine-10,4′-oxazol]-2′-amine]
IC50 ([1]; Table III, IC50's in uM ranges): 0.1 to 1 µM
IC50 ([2]; Table III, IC50's in uM ranges): 0.1 to 1 µM

Structure (SMILES): NC1=N[C@]2(CO1)c1cc(OCC3CC3(F)F)ccc1Oc1ccc(-c3cncnc3)cc12 (stereo partly drawn) [Example 62, (4S)-2′-((2,2-difluorocyclopropyl)methoxy)-7′-(5-pyrimidinyl)spiro[1,3-oxazole-4,9′-xanthen]-2-amine]
IC50 ([1]; Table II): < 0.1 µM
IC50 ([2]; Table II, Aβ40, 24 h incubation): < 0.1 µM

Structure (SMILES): NC1=N[C@@]2(CO1)c1cc(-c3cc(Cl)ccc3F)ccc1Oc1cnc(C3=CCOCC3)cc12 [compound 424]
IC50 [1]: < 0.1 µM
IC50 ([2]; HEK cells): < 0.1 µM

Structure (SMILES): CC1(COc2cnc3c(c2)[C@]2(COC(N)=N2)c2cc(-c4ccccc4Cl)ccc2O3)COC1 [compound 414]
IC50 [1, 3]: < 0.1 µM
IC50 [2, 4]: 0.1 to 1 µM

Structure (SMILES): CC1(C)C[C@H](c2cc3c(cn2)Oc2ccc(-c4cccnc4F)cc2[C@@]32COC(N)=N2)CCO1 [compound 432]
IC50 [1]: < 0.1 µM
IC50 ([2]; HEK cells): < 0.1 µM

Structure (SMILES): COC1CCN(c2ccc3c(c2)[C@]2(COC(N)=N2)c2cc(-c4cccnc4)ccc2O3)CC1 [compound 464]
IC50 [1]: < 0.1 µM
IC50 ([2]; HEK cells): < 0.1 µM

Structure (SMILES): CC(=O)c1ccccc1-c1ccc2c(c1)[C@]1(COC(N)=N1)c1cc(OCC(C)(C)C)ccc1O2 [compound 190]
IC50 ([1]; Table III, IC50's in uM ranges): 0.1 to 1 µM
IC50 ([2]; Table III, IC50's in uM ranges): > 5 µM

Structure (SMILES): Cc1ccc(-c2cnc3c(c2)[C@]2(COC(N)=N2)c2cc(-c4cncnc4)ccc2O3)cc1 [compound 578]
IC50 ([1]; Table IV, class symbols): < 0.1 µM
IC50 ([2]; Table IV, class symbols): < 0.1 µM

Structure (SMILES): COCC[C@@H]1CN(c2ccc3c(c2)[C@]2(COC(N)=N2)c2cc(-c4cccnc4)ccc2O3)CCO1 [compound 421]
IC50 [1]: 0.1 to 1 µM
IC50 ([2]; HEK cells): 0.1 to 1 µM

Structure (SMILES): NC1=N[C@@]2(CO1)c1cc(-c3cncnc3)ccc1Oc1c(F)cc(OCC3CC3(F)F)cc12 (some centres unmarked) [compound 507]
IC50 [1]: < 0.1 µM
IC50 ([2]; HEK cells): < 0.1 µM

Structure (SMILES): CC1(C)CN(c2cnc3c(c2)[C@]2(COC(N)=N2)c2cc(-c4cccnc4F)ccc2O3)CCO1 [compound 463]
IC50 [1]: < 0.1 µM
IC50 ([2]; HEK cells): < 0.1 µM

Structure (SMILES): NC1=N[C@]2(CO1)c1cc(C3=CCNCC3)ccc1Oc1ccc(-c3cncnc3)cc12 [compound 964]
IC50 [1]: < 0.1 µM
IC50 [2]: < 0.1 µM

Structure (SMILES): Cc1cncc(-c2ccc3c(c2)[C@@]2(COC(N)=N2)c2cc(Cl)ncc2O3)c1 [compound 327]
IC50 [1, 3]: 0.1 to 1 µM
IC50 [2, 4]: 1 to 5 µM

Structure (SMILES): NC1=N[C@]2(CO1)c1cc(C3=CCOCC3)ccc1Oc1cc(F)c(O)cc12 [compound 491]
IC50 [1]: 0.1 to 1 µM
IC50 ([2]; HEK cells): 1 to 5 µM

Structure (SMILES): CC(C)(C)/C=C/c1cc2c(cn1)Oc1ccc(-c3cccnc3F)cc1[C@@]21COC(N)=N1 [compound 514]
IC50 [1]: < 0.1 µM
IC50 ([2]; HEK cells): < 0.1 µM

Second part, the compound after the results:

IC50 [1]: < 0.1 µM
IC50 [2]: < 0.1 µM
Structure (SMILES): CC(C)(C)COc1ccc2c(c1)[C@@]1(COC(N)=N1)c1cc(-c3ccc(OCC(F)(F)F)nc3)cnc1O2 [compound 740]

IC50 ([1]; Table IV, class symbols): < 0.1 µM
IC50 ([2]; Table IV, class symbols): 0.1 to 1 µM
Structure (SMILES): CC(C)(C)COc1ccc2c(c1)[C@]1(COC(N)=N1)c1cc(C3CCCCO3)ccc1O2 (some centres unmarked) [compound 656]

IC50 [1]: < 0.1 µM
IC50 [2]: 0.1 to 1 µM
Structure (SMILES): NC1=N[C@]2(CO1)c1cc(-c3cccnc3)ccc1Oc1cnc(-c3cccnc3)cc12 [compound 954]

IC50 ([1]; Table IV, class symbols): 1 to 5 µM
IC50 ([2]; Table IV, class symbols): > 5 µM
Structure (SMILES): CC(C)(C)C#Cc1ccc2c(c1)[C@]1(COC(N)=N1)c1cc(Cl)ncc1O2 [compound 846]

IC50 ([1]; Table IV, class symbols): < 0.1 µM
IC50 ([2]; Table IV, class symbols): 0.1 to 1 µM
Structure (SMILES): CCCNC(=O)c1ccc2c(c1)[C@@]1(COC(N)=N1)c1cc(OCC(C)(C)C)ccc1O2 [compound 657]

IC50 [1]: 0.1 to 1 µM
IC50 [2]: 0.1 to 1 µM
Structure (SMILES): NC1=N[C@]2(CO1)c1cc(OC3COC3)ccc1Oc1ccc(-c3cncnc3)cc12 [compound 776]

IC50 [1]: 0.1 to 1 µM
IC50 [2]: 0.1 to 1 µM
Structure (SMILES): Cc1noc(C)c1-c1ccc2c(c1)[C@]1(COC(N)=N1)c1cc(-c3cccnc3)ccc1O2 [compound 704]

IC50 [1]: 0.1 to 1 µM
IC50 [2]: 0.1 to 1 µM
Structure (SMILES): CC(C)(O)C#Cc1ccc2c(c1)[C@@]1(COC(N)=N1)c1cc(C#CC(C)(C)O)cnc1O2 [compound 935]

IC50 [1]: 0.1 to 1 µM
IC50 [2]: 1 to 5 µM
Structure (SMILES): CC(C)(C)COc1ccc2c(c1)[C@]1(COC(N)=N1)c1cc(-c3ncc[nH]3)ccc1O2 [compound 979]

IC50 [1]: < 0.1 µM
IC50 [2]: 1 to 5 µM
Structure (SMILES): CC(C)(C)COc1ccc2c(c1)[C@]1(COC(N)=N1)c1cc(C3=CC4CCC3C4)ccc1O2 (some centres unmarked) [compound 730]

IC50 [1]: < 0.1 µM
IC50 [2]: < 0.1 µM
Structure (SMILES): NC1=N[C@@]2(CO1)c1cc(-c3cccnc3)ccc1Oc1cnc(/C=C/C3CC3)cc12 [compound 728]

IC50 [1]: < 0.1 µM
IC50 [2]: < 0.1 µM
Structure (SMILES): CC1(COc2ccc3c(c2)[C@@]2(COC(N)=N2)c2cc(-c4cccc(F)c4)cnc2O3)COC1 [compound 774]

IC50 ([1]; Table IV, class symbols): 0.1 to 1 µM
IC50 ([2]; Table IV, class symbols): 0.1 to 1 µM
Structure (SMILES): NC1=N[C@]2(CO1)c1cc(-c3cccnc3)ccc1Oc1ncccc12 [compound 635]

IC50 [1]: < 0.1 µM
IC50 [2]: 0.1 to 1 µM
Structure (SMILES): CC(C)(O)COc1ccc2c(c1C#N)[C@]1(COC(N)=N1)c1cc(-c3cccnc3)ccc1O2 [compound 929]

IC50 ([1]; Table IV, class symbols): < 0.1 µM
IC50 ([2]; Table IV, class symbols): < 0.1 µM
Structure (SMILES): COc1cncc(-c2ccc3c(c2)[C@@]2(COC(N)=N2)c2cc(C#CC(C)(C)OC)cnc2O3)c1 [compound 602]

IC50 [1]: 0.1 to 1 µM
IC50 [2]: 1 to 5 µM
Structure (SMILES): CC(C)(C)COc1ccc2c(c1)[C@@]1(COC(N)=N1)c1cc(C#N)ccc1O2 [compound 990]

IC50 [1]: 0.1 to 1 µM
IC50 [2]: 1 to 5 µM
Structure (SMILES): CC(C)(C)COc1ccc2c(c1)[C@@]1(COC(N)=N1)c1cc(C(=O)N3CCCC3)ccc1O2 [compound 992]

IC50 [1]: 1 to 5 µM
IC50 [2]: > 5 µM
Structure (SMILES): CC(C)(C)COc1cc2c(cc1F)[C@]1(COC(N)=N1)c1cc(-c3cncnc3)ccc1O2 [compound 999]

IC50 ([1]; Table IV, class symbols): > 5 µM
IC50 ([2]; Table IV, class symbols): > 5 µM
Structure (SMILES): NC1=N[C@@]2(CO1)c1ccccc1Oc1ccc(C(=O)N3CCCCC3)cc12 [compound 639]

IC50 [1]: < 0.1 µM
IC50 [2]: 0.1 to 1 µM
Structure (SMILES): CC(C)(C)C#Cc1ccc2c(c1)[C@@]1(COC(N)=N1)c1cc(C#CC(C)(C)C)cnc1O2 [compound 1000]

IC50 ([1]; Table IV, class symbols): < 0.1 µM
IC50 ([2]; Table IV, class symbols): 0.1 to 1 µM
Structure (SMILES): CC1(C)Cc2cc(-c3ccc4c(c3)[C@]3(COC(N)=N3)c3cc(-c5cncnc5)ccc3O4)ccc2O1 [compound 841]

IC50 ([1]; Table IV, class symbols): 0.1 to 1 µM
IC50 ([2]; Table IV, class symbols): 1 to 5 µM
Structure (SMILES): CC(C)(C)COc1ccc2c(c1)[C@]1(COC(N)=N1)c1cc(C(=O)NC3CCCC3)ccc1O2 [compound 874]
